Source: patent US10807976B2, “Quinolinone five-membered heterocyclic compounds as mutant-isocitrate dehydrogenase inhibitors” (FORMA Therapeutics, Inc., priority 2015, dated 2020)

Target: IDH1-R132H recombinant protein (Homo sapiens, UniProt O75874, R132H)
Test: IDH1-R132H enzymatic assay (diaphorase/resazurin, NADPH consumption)
Format: biochemical
Conditions: 30 nM IDH1-R132H, inhibition of NADPH consumption; read-out: Enzyme IDH1 R132H IC50
Procedure: Example 26—IDH1-R132H and IDH1-R132C Enzymatic Assay
Assays were performed in a 384-well black plate. An aliquot of 250 nL of compound was incubated with 10 μL of 30 nM IDH1-R132H or 10 nM IDH1-R132C recombinant protein in assay buffer (50 mM Tris pH=7.5, 150 mM NaCl, 5 mM MgCl2, 0.1% (w/v) Bovine Serum Albumin, and 0.01% Triton X-100) in each well at 25° C. for 15 minutes. After the plate was centrifuged briefly, an aliquot of 10 μL of 2 mM α-ketoglutarate and 20 μM NADPH solution prepared in assay buffer was then added to each well and the reaction was maintained at 25° C. for 45 minutes. An aliquot of 10 μL of diaphorase solution (0.15 U/mL diaphorase and 30 μM Resazurin in assay buffer) was added to each well. The plate was maintained at 25° C. for 15 minutes and then read on a plate reader with excitation and emission wavelengths at 535 nm and 590 nm, respectively. The IC50 of a given compound was calculated by fitting the dose response curve of inhibition of NADPH consumption at a given concentration with the four parameter logistic equation.

Chain of IDH1-R132H recombinant protein (O75874 whole entry R132H): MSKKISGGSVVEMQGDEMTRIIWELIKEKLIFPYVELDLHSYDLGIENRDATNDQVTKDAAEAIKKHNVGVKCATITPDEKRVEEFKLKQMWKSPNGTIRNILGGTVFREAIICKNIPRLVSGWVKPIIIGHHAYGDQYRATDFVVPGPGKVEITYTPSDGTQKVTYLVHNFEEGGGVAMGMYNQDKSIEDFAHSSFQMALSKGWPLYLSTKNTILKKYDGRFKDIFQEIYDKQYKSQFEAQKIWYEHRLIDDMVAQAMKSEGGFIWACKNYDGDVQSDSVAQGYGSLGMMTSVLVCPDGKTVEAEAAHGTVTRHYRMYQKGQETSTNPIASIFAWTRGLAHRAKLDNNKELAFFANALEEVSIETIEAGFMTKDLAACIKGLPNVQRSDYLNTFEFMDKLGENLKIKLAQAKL

IC50: > 10 µM
Substance: 6-chloro-3-[(1S)-1-{[5-(2-oxo-1,3-oxazolidin-3-yl)-1,2,4-thiadiazol-3-yl]amino}ethyl]-1,2-dihydroquinolin-2-one [Compound I-12]
